The source of these data is ChEMBL document CHEMBL4765417, “Targeting Protein Folding: A Novel Approach for the Treatment of Pathogenic Bacteria” (J Med Chem, 2020).

A short description of one data set: clinical. To be noted: human, in vivo, po, 30 mg/m2.
Data set [1] can be described thus: Inhibition of Chlamydia trachomatis Mip using N-succinyl-Ala-Ala-Pro-Phe-4-nitroanilide as substrate by absorbance method.
Data set [2] in a line: Inhibition of Neisseria gonorrhoeae N2009 Mip using N-succinyl-Ala-Ala-Pro-Phe-4-nitroanilide as substrate by absorbance method.
In data set [3] the target is Outer membrane protein MIP (Legionella pneumophila, UniProt Q70YI1). The data set is described as follows: Inhibition of Legionella pneumophila Mip assessed as reduction in PPIase activity using succinyl-Ala-Leu-Pro-Phe-4-nitroanilide as substrate incubated for 4 mins by absorbance method.
In data set [4] the target is Peptidyl-prolyl cis-trans isomerase FKBP1A (Homo sapiens, UniProt P62942). The experiment in a line: Inhibition of human FKBP12 assessed as reduction in PPIase activity using succinyl-Ala-Leu-Pro-Phe-4-nitroanilide as substrate incubated for 4 mins by absorbance method.
The test system of another data set is HCT-116. The data set is described as follows: Antiproliferative activity against human HCT116 cells incubated for 24 hrs by cell count reagent SF based assay. In kind it is functional. To be noted: HCT-116, 24 h.
For data set [5], the system named is Chlamydia trachomatis. The experiment in a line: Antibacterial activity against Chlamydia trachomatis infected in human HeLa cells at 5 uM assessed as reduction in progeny infection administered immediately followed by bacterial infection by Western blot analysis. The arrangement: scale not given: the % may be the effect or the level left. It counts as functional.

Data set [6] relates to Chlamydia trachomatis. The experiment in a line: Antibacterial activity against Chlamydia trachomatis infected in human HeLa cells at 5 uM assessed as reduction in progeny infection administered at 8 to 24 hrs post infection by Western blot analysis. As to conditions: time 8-24 hrs. In kind it is functional. The arrangement: scale not given: the % may be the effect or the level left.

Data set [7] concerns Chlamydia trachomatis. The data set is described as follows: Antibacterial activity against Chlamydia trachomatis infected in human HeLa cells at 5 uM assessed as reduction in progeny infection administered immediately followed by bacterial infection by phalloidin dye based Alexa Fluor immunofluorescence microscopy. It counts as functional. Details: scale not given: the % may be the effect or the level left.

Data set [8] concerns Chlamydia trachomatis. The data set is described as follows: Antibacterial activity against Chlamydia trachomatis infected in human HeLa cells at 5 uM administered at 8 to 24 hrs post infection by phalloidin dye based Alexa Fluor immunofluorescence microscopy. It counts as functional. As to conditions: time 8-24 hrs.

Chain of Peptidyl-prolyl cis-trans isomerase FKBP1A (P62942 whole entry): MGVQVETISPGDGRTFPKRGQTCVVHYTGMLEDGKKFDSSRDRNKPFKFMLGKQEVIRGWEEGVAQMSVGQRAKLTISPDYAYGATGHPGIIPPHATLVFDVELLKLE
Chain of Outer membrane protein MIP (Q70YI1 21-233 limits assumed): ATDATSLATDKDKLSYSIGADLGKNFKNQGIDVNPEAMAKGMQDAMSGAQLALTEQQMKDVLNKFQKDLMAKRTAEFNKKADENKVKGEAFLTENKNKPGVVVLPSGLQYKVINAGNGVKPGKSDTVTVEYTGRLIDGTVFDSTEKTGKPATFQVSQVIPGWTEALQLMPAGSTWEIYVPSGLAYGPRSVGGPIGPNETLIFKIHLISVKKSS

With `CC1=C(/C=C/C(C)=C/C=C/C(C)=C/C(=O)O)C(C)(C)CCC1` [TRETINOIN], in “clinical”, the half-life (usually how long it takes for the measured level to halve) at 672 h was 45 min.

Turning to `CO[C@H]1C[C@@H]2CC[C@@H](C)[C@@](O)(O2)C(=O)C(=O)N2CCCC[C@H]2C(=O)O[C@H]([C@H](C)C[C@@H]2CC[C@@H](O)[C@H](OC)C2)CC(=O)[C@H](C)/C=C(\C)[C@@H](O)[C@@H](OC)C(=O)[C@H](C)C[C@H](C)/C=C/C=C/C=C/1C` [SIROLIMUS], the half-inhibitory concentration (IC50) (in general, the concentration that inhibits the measured activity by half) amounted to 7.9 nM in [1] and 15.8 nM in data set [2].

For the molecule `C[C@@H]1CC([C@H](O)CC2CC(=O)N(CC(=O)NC3C4CC5(C)CC(O)(C4)CC3(C)C5)C(=O)C2)C(=O)[C@@H](C)C1` (stereo partly specified), the 50% inhibitory concentration (IC50) came to 4900 nM in data set [3] and 220 nM in [4].

As for `S=C(SC(=S)C1CCCCC1)C1CCCCC1`, the 50% effective concentration (EC50) – broadly, the concentration giving half of the maximal effect – with HCT-116 came out at 10000 nM.

In the case of `COc1cc(CCCOC(=O)C2CCCCN2S(=O)(=O)Cc2cccc([N+](=O)[O-])c2)cc(OC)c1OC` (stereo unspecified), the IC50 in data set [1] was determined as 241 nM; in data set [2], 2790 nM.

For the molecule `CCC12CC3CC(C1)C(NC(=O)CN1C(=O)CC(C[C@@H](O)C4C[C@@H](C)C[C@H](C)C4=O)CC1=O)C(C3)C2` (stereo partly specified), the IC50 in data set [3] amounted to 5600 nM; in data set [4], 190 nM.

As for `C[C@@H]1CC([C@H](O)CC2CC(=O)N(CC(=O)NC3C4CC5CC3CC(O)(C5)C4)C(=O)C2)C(=O)[C@@H](C)C1` (stereo partly specified), the IC50 in [3] is 21800 nM; in [4] it was 1200 nM.

As for `C[C@@H]1CC([C@H](O)CC2CC(=O)N(CC(=O)N(C)C(C)(C)C)C(=O)C2)C(=O)[C@@H](C)C1` (stereo partly specified), in data set [3], the IC50 worked out at 31700 nM.

Turning to `C[C@@H]1CC([C@H](O)CC2CC(=O)N(CC(=O)NC3C4CC5(C)CC3CC(C)(C4)C5)C(=O)C2)C(=O)[C@@H](C)C1` (stereo partly specified), the figures for the half-maximal inhibitory concentration (IC50) in data set [3] and in data set [4] were 1700 nM and 180 nM, respectively.

Take `COc1cc(CCCOC(=O)C2CCCCN2S(=O)(=O)Cc2ccc([N+](=O)[O-])cc2)cc(OC)c1OC` (stereo unspecified): the half-maximal inhibitory concentration (IC50) is 64.6 nM in [1] and 95.6 nM in [2]. Also, the Activity with Chlamydia trachomatis [5], in the data set on Chlamydia trachomatis [6], with Chlamydia trachomatis [7] and in the data set with Chlamydia trachomatis [8] was 50% each time.
